≈ marks a conversion by molar mass, not a printed value.
Experiments:
[1] = system: Peptostreptococcus anaerobius 1451; format: cell-based; details: Peptostreptococcus anaerobius, 1451, 24 h
[2] = system: Shigella sonnei; format: cell-based; details: 24-hour incubation
From the text: (§1) The formula 1 compounds (A82810 compounds) have antibacterial and anticoccidial activity. A82810 compounds are especially active against anaerobic bacteria. […]

[3] = system: Clostridium septicum 1128; format: cell-based; details: 24-hour incubation
From the text: as §1

[4] = system: Salmonella sp; format: cell-based; details: 24-hour incubation
From the text: as §1

[5] = system: Clostridium difficile 2994; format: cell-based; details: Clostridioides difficile, 24-hour incubation
From the text: as §1

[6] = system: Brazil influenza virus; format: cell-based; details: tissue culture
[7] = system: Eimeria acervulina Strain FS-273 and E. tenella Strain FS-456; test: anticoccidial feed test in infected chickens, ionophore-resistant strains; format: in vivo
[8] = system: Bacteroides melaninogenicus 2736; format: cell-based; details: 2736, 24 h
[9] = system: Klebsiella sp.; format: cell-based; details: 24 h
[10] = system: Fusobacterium necrophorum 6054A; format: cell-based; details: 24 h
[11] = system: Eimeria maxima Strain FS-177; test: anticoccidial feed test in infected chickens, ionophore-sensitive strain; format: in vivo
[12] = system: Friend leukemia virus; test: antiviral tissue-culture test; format: cell-based
[13] = system: Great Lakes influenza virus; format: cell-based; details: tissue culture
[14] = system: Eimeria acervulina Strain FS-316 And E. tenella Strain FS-456; test: anticoccidial feed test in infected chickens, ionophore-resistant strains; format: in vivo
[15] = system: Staphylococcus epidermidis 270; format: cell-based; details: Staphylococcus epidermidis, 270, 24 h
[16] = system: Bacteroides fragilis 1936B; format: cell-based; details: 24 h
[17] = system: Fusobacterium symbiosum 1470; format: cell-based; details: Fusobacterium, 1470, 24 h
[18] = system: Eubacterium aerofaciens 1235; format: cell-based; details: Collinsella aerofaciens, 1235, 24 h
[19] = system: Enterobacter aerogenes C32; format: cell-based; details: Klebsiella aerogenes, C32, 24 h
[20] = system: Escherichia coli N10; format: cell-based; details: N10, 24 h
[21] = system: Treponema hyodysenteriae; test: growth inhibition of swine dysentery agent; format: cell-based
From the text: In another aspect the A82810 compounds are useful in the treatments of swine dysentery. A82810 inhibits the growth of Treponema hyodysenteriae, a causative agent of swine dysentery, at levels as low as 1.56 mcg/mL. A preferred method of administration to swine is by incorporation of an appropriate amount of an A82810 compound into the feed ration or drinking water. An appropriate amount will relate to whether the treatment is to prevent or to cure infection. Usually, a lower concentration of active compound is needed to prevent infection than is required for to eliminate infection in animals already afflicted. In general, amounts in the range of from about 20 to about 100 grams of A82810 compound per ton of feed are effective to prevent infection. Amounts in the range of from about 100 to about 500 g of A82810 compound per ton of feed are recommended for treating swine suffering from dysentery. These amounts provide from about 1 to about 5 mg/kg of body weight per day (prophylactic treatment) or from about 5 to about 25 mg/kg of body weight per day (treatment of infected animal). When added to the drinking water, amounts of from about 0.04 to about 0.2 g (prophylactic) or from about 0.2 to about 1 g (therapeutic) of A82810 compound per gallon of water are recommended.

[22] = system: Escherichia coli EC14; format: cell-based; details: EC14, 24 h
[23] = system: Bacteroides fragilis 111; format: cell-based; details: Bacteroides fragilis, 111, 24 h
[24] = system: Eimeria tenella; test: in vitro tissue-culture anticoccidial screen; format: cell-based; details: in vitro tissue-culture screen against Eimeria tenella
From the text: Anticoccidial activity is an important property of the A82810 compounds. For example, in an in vitro tissue-culture screen against Eimeria tenella, A82810 was active at <0.0025 mcg/mL, propionyl-A82810 was active at 0.05 mcg/mL and acetyl-A82810 was active at 0.01 mcg/mL.

[25] = system: Staphylococcus epidermidis 222; format: cell-based; details: Staphylococcus epidermidis, 222, 24 h
[26] = system: Bacteroides melaninogenicus 1856/28; format: cell-based; details: Prevotella intermedia, 1856/28, 24 h
[27] = system: Streptococcus faecium X66; format: cell-based; details: Enterococcus faecium, X66, 24 h
[28] = system: Streptococcus pneumoniae Park 1; format: cell-based; details: 24 h
[29] = system: Streptococcus pyogenes C203; format: cell-based; details: C203, 24 h

SMILES: CC[C@@H](O)[C@]1(C)C[C@H](C)[C@@](O)([C@H]2C[C@H](C)[C@H]([C@]3(C)C[C@@H](O[C@H]4CC[C@H](OC)[C@@H](C)O4)[C@H]([C@]4(C)CC[C@@]5(O[C@H]([C@@H](C)[C@@H](OC)[C@H](C)C(=O)O)[C@H](C)[C@@H](OC)[C@H]5C)O4)O3)O2)O1 [Example A82810]
- MIC [1]: ≤ 0.25 µg/mL
- MIC [2]: 2 µg/mL (≈ 2.37 µM)
- MIC [3]: 0.5 µg/mL (≈ 0.593 µM)
- MIC [4]: > 128 µg/mL
- MIC [5]: 0.5 µg/mL (≈ 0.593 µM)
- active at a level of [6]: 250 µg/mL
- LESION SCORE ([7]; 2 ppm): 7.2
- PERCENT REDUCTION IN OOCYST PRODUCTION ([7]; 2 ppm): 22%
- WEIGHT GAIN, PERCENT OF CONTROL ([7]; 2 ppm): 68% OF CONTROL
- LESION SCORE ([7]; 6 ppm): 3.7
- PERCENT REDUCTION IN OOCYST PRODUCTION ([7]; 6 ppm): 65%
- WEIGHT GAIN, PERCENT OF CONTROL ([7]; 6 ppm): 89% OF CONTROL
- LESION SCORE ([7]; 10 ppm): 2.0
- PERCENT REDUCTION IN OOCYST PRODUCTION ([7]; 10 ppm): 83%
- WEIGHT GAIN, PERCENT OF CONTROL ([7]; 10 ppm): 86% OF CONTROL
- MIC [8]: 8 µg/mL (≈ 9.49 µM)
- MIC [9]: > 128 µg/mL
- MIC [10]: ≤ 0.25 µg/mL
- AVERAGE INTESTINAL LESION SCORES ([11]; 2 ppm): 1.9
- AVERAGE INTESTINAL LESION SCORES ([11]; 6 ppm): 0.6
- WEIGHT GAIN, PERCENT OF CONTROL ([11]; 6 ppm): 108% OF CONTROL
- AVERAGE INTESTINAL LESION SCORES ([11]; 10 ppm): 0.2
- WEIGHT GAIN, PERCENT OF CONTROL ([11]; 10 ppm): 102% OF CONTROL
- active at levels as low as [12]: 0.04 µg/mL
- active at a level of [13]: 250 µg/mL
- TOTAL LESION SCORE ([14]; 0.5 ppm): 8.7
- WEIGHT GAIN, PERCENT OF CONTROL ([14]; 0.5 ppm): 87% OF CONTROL
- TOTAL LESION SCORE ([14]; 1 ppm): 9.3
- WEIGHT GAIN, PERCENT OF CONTROL ([14]; 1 ppm): 89% OF CONTROL
- TOTAL LESION SCORE ([14]; 1.5 ppm): 7.7
- WEIGHT GAIN, PERCENT OF CONTROL ([14]; 1.5 ppm): 95% OF CONTROL
- TOTAL LESION SCORE ([14]; 2 ppm): 9.6
- WEIGHT GAIN, PERCENT OF CONTROL ([14]; 2 ppm): 93% OF CONTROL
- AVERAGE CECAL LESION SCORES ([14]; 2.5 ppm): 3.2
- AVERAGE INTESTINAL LESION SCORES ([14]; 2.5 ppm): 2.3
- WEIGHT GAIN, PERCENT OF CONTROL ([14]; 2.5 ppm): 81% OF CONTROL
- AVERAGE CECAL LESION SCORES ([14]; 3 ppm): 2.9
- AVERAGE INTESTINAL LESION SCORES ([14]; 3 ppm): 3.3
- WEIGHT GAIN, PERCENT OF CONTROL ([14]; 3 ppm): 77% OF CONTROL
- AVERAGE CECAL LESION SCORES ([14]; 3.5 ppm): 3.2
- AVERAGE INTESTINAL LESION SCORES ([14]; 3.5 ppm): 3.0
- WEIGHT GAIN, PERCENT OF CONTROL ([14]; 3.5 ppm): 85% OF CONTROL
- AVERAGE CECAL LESION SCORES ([14]; 5 ppm): 2.3
- AVERAGE INTESTINAL LESION SCORES ([14]; 5 ppm): 1.3
- WEIGHT GAIN, PERCENT OF CONTROL ([14]; 5 ppm): 95% OF CONTROL
- AVERAGE CECAL LESION SCORES ([14]; 6 ppm): 3.2
- AVERAGE INTESTINAL LESION SCORES ([14]; 6 ppm): 1.7
- WEIGHT GAIN, PERCENT OF CONTROL ([14]; 6 ppm): 98% OF CONTROL
- MIC [15]: 1 µg/mL (≈ 1.19 µM)
- MIC [16]: 8 µg/mL (≈ 9.49 µM)
- MIC [17]: 0.5 µg/mL (≈ 0.593 µM)
- MIC [18]: ≤ 0.25 µg/mL
- MIC [19]: 8 µg/mL (≈ 9.49 µM)
- MIC [20]: 1 µg/mL (≈ 1.19 µM)
- inhibits the growth at levels as low as [21]: 1.56 µg/mL
- MIC [22]: 8 µg/mL (≈ 9.49 µM)
- MIC [23]: 8 µg/mL (≈ 9.49 µM)
- active at [24]: < 0.0025 µg/mL
- MIC [25]: 0.5 µg/mL (≈ 0.593 µM)
- MIC [26]: 8 µg/mL (≈ 9.49 µM)
- MIC [27]: 1 µg/mL (≈ 1.19 µM)
- MIC [28]: 1 µg/mL (≈ 1.19 µM)
- MIC [29]: 1 µg/mL (≈ 1.19 µM)

From patent publication EP0341019A2, “Polyether antibiotic” (priority 1988, dated 1989)
